Usually IC50 stands for the concentration needed to halve the response being measured. As a reminder, the Kd is the equilibrium constant for the complex coming apart.

Data on 3 compounds can be found in PMC9169614, “Decrypting a cryptic allosteric pocket in H. pylori glutamate racemase” (Communications Chemistry, 2021).

For one data set, the system named is H. pylori GR. More on the design: method as in earlier work. Conditions: ref 8 (Lundqvist et al.); cited from earlier work.
Details of data set [1]: method as in PMID 31876113. The following applies: carboxylic acid form (α-carboxylate protonated by Cys181); cited from earlier work.
The target in data set [2] is T1, H. pylori glutamate racemase (GR) (Helicobacter pylori, UniProt Q9ZLT0).
T1 construct: made in house; host or cells: E. coli BL21 (DE3) pLysS, co-expressed with GroEL/ES
T1 sequence (Q9ZLT0 whole entry): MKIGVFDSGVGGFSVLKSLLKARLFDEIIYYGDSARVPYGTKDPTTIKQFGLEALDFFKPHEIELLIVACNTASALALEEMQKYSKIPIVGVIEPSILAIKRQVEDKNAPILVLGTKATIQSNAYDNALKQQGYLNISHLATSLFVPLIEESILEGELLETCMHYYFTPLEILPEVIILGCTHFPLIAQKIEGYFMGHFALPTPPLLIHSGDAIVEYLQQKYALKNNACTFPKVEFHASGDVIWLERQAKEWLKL
The experiment in a line: Surface plasmon resonance (SPR) binding to immobilized GR. Conditions: 1:1 Langmuir binding model, absence of substrate D-Glu, 25 °C, 500-7.81 µM dilution series. In general terms: Surface plasmon resonance follows binding to a sensor surface in real time, without labels.
Description: We first evaluated the binding affinity of these compounds to H. pylori GR by Surface Plasmon Resonance (SPR). A combination of amine coupling and HisCapture was used to immobilize the protein on the surface of the SPR biosensor. Compounds were injected onto the sensor in increasing concentrations using a dilution series ranging from 500 µM to 7.81 µM (7 concentrations).
Experiments were performed using a SensiQ Pioneer SPR. The biosensor chip was first equilibrated with SPR running buffer (50 mM Tris-HCl, 100 mM NaCl, TCEP, 1% v/v TWEEN, pH 8.0), then the surface of the biosensor chip was seasoned by injecting 200 μL 50 mM NaOH at 40 μL/min, 200 μL 0.1% v/v SDS at 40 μL/min, and 200 μL 10 mM HCl at 40 μL/min in the test and reference biosensor chip flow channels. This process of seasoning was repeated twice. All buffers and solutions were filter sterilized with 0.22-μm buffer filters before using on the SPR instrument. After seasoning, the lines were primed three times with SPR buffer. […]
H. pylori GR was immobilized to the biosensor using a HisCapture couple method detailed above. […] All sensograms were analyzed using the program Qdat (2.6.3.0) and it fitted to a model of simple binding of 1:1 Langmuir binding model for all virtual hits. […]

Data set [3] addresses T1, H. pylori glutamate racemase (GR). The experiment in a line: Coupled-enzyme assay (L-glutamate dehydrogenase/diaphorase) of D- to L-glutamate racemization. It counts as biochemical. Conditions: 1.25 mM D-Glu, 2 µM GR, 50 mM TRIS pH 8, 5% DMSO; mean ± SE n = 3 for NP-020560 and Compound A, other hits single repeat.
Description: The D- to L-glutamate racemization activities of H. pylori GR was assayed through a previously established coupled-enzyme method, utilizing L-glutamate dehydrogenase and diaphorase[40]. […] The assay consists of 1.25 mM D-Glu, 2.51 mM ADP, 5 mM NAD, 0.506 mM INT, 5 Units of L-GDH, 0.4 units of diaphorase and 2 µM GR in 50 mM TRIS, pH = 8. Compound stocks solutions of varying concentrations (100 µM–50 mM) were made in DMSO and introduced in the assay vials. The final DMSO concentration after addition of compounds in the assay was 5% v/v. […] Absorption for the reduced iodonitrotetrazolium was collected by measuring absorbance at 500 nm at 1 min interval for 60 min on Cary 300 UV-VIS Spectrophotometer from Varian (Palo Alto, CA). Absorbance for each compound concentration at every time point were normalized to absorbance for blank, followed by calculating slopes for each concentration. The calculated slopes with the respective log (inhibitor concertation) were fitted to log(inhibitor) vs response (three parameters) model within ‘Nonlinear Regression-Dose Response Inhibition’ in GraphPad Prism version 8.4.3. The program provides output as IC50 and LogIC50 along with respective standard errors, and for ease of expression, we report inhibition data as IC50 (mean ± SE).

Molecules are shown by their SMILES.

For the compound `CC(C)Cn1c(=O)n(C)c(=O)c2c(-c3ccncc3)n(Cc3cccc4ccccc34)nc21` [Compound A], the IC50 with H. pylori GR was 5 µM.

`N[C@H](CCC(=O)O)C(=O)O` [D-Glu, D-glutamate]: the “pKa of α-carbon of D-Glu substrate” value in data set [1] is on record as 14.4.

In data set [2], `Cc1cc2c(c(-c3c(O)c(C)cc4c3C(=O)c3c(O)cc(O)cc3C4=O)c1O)C(=O)c1c(O)cc(O)cc1C2=O` [NP-020560] displayed a Kd of 54.7 ± 0.3 µM. For the same compound, the IC50 in data set [3] turned out to be 6.6 ± 3.1 µM.
